Here are results for nine compounds from US11242337B2, “Compounds useful for treating gastrointestinal tract disorders” (Ardelyx, Inc., priority 2017, dated 2022).

The subject of test [1] is human ileum monolayer culture. Kind of test: Sustained inhibition of apical acid secretion in human organoid monolayer cell cultures (ileum). The class given is cell-based. Particulars: Homo sapiens, 48 h; 1 μM apical, dosed day 6, apical media pH day 8, vs DMSO. In short, it runs like this:
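Human ileum organoid-derived Transwell monolayers, differentiated with ENRA from day 3, received 1 μM compound apically on day 6 (DMSO vehicle, duplicate wells). Apical medium pH was measured by electrode on day 8 as a readout of sustained NHE3-mediated proton secretion inhibition.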

In test [2] the test system is human duodenum monolayer culture. The experiment in a line: Sustained inhibition of apical acid secretion in human organoid monolayer cell cultures (duodenum). The test is classed as cell-based. Particulars: Homo sapiens. In short, it runs like this: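 Duodenum organoid cells were plated on Transwells, differentiated with EGF/noggin/A83-01 from day 3, and dosed apically on day 6 with compound at 1 μM final (DMSO vehicle control), in duplicate wells, at 37° C, 5% CO2. Apical media pH was measured by electrode on day 8.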

The test system of test [3] is absorption of sodium from the intestinal lumen. Kind of test: Inhibition of intestinal sodium absorption in mice. The test is classed as in vivo. To be noted: CD-1 mice, 15 mg/kg oral gavage twice daily; for Fecal fluid content (Δ from vehicle): day 3, change from vehicle group mean; for response vs control in vivo at 15 mg/kg: Mus musculus, 72 h, day 3, normalized to dietary sodium intake. In short, it runs like this:
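Male ~8-week CD-1 mice on chow with added 0.4% inorganic phosphorous, in metabolic cages after 3-day acclimation and 24-hr baseline collection. Urine sodium by ion chromatography, dried fecal sodium by MP-AES; day-3 24-hour excretion normalized to dietary sodium intake and expressed as % of vehicle mean; diarrhea and fecal fluid also recorded.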

[4] abbreviates: read-out: Fecal Na Excretion (% of vehicle).
[5] abbreviates: read-out: Urinary Na Excretion (% of vehicle).

Read-outs that look alike come from different tables or passages of the source.

Consider `Cc1cc(Cl)cc2c1C[C@H](N(C)C)[C@H]2Oc1ccc(S(=O)(=O)NCCOCCOCCNC(=O)NCCCCNC(=O)NCCOCCOCCNS(=O)(=O)c2ccc(O[C@H]3c4cc(Cl)cc(C)c4C[C@@H]3N(C)C)c(F)c2)cc1F` [Example 24, 3-[2-(2-[2-[(4-[[(1S,2S)-6-Chloro-2-(dimethylamino)-4-methyl-2,3-dihydro-1H-inden-1-yl]oxy]-3-fluorobenzene)sulfonamido]ethoxy]ethoxy)ethyl]-1-[4-([[2-(2-[2-[(4-[[(1S,2S)-6-chloro-2-(dimethylamino)-4-methyl-2,3-dihydro-1H-inden-1-yl]oxy]-3-fluorobenzene)sulfonamido]ethoxy]ethoxy)ethyl]carbamoyl]amino)butyl]urea], for which the inhibition at 1 µM in test [1] was below 50%; in test [2], 50 to 70%. Moreover, the “Fecal fluid content (Δ from vehicle)” value in test [3] is recorded as “A (<5)”. The response vs control in vivo at 15 mg/kg is above 200% in test [3] (setting [4]) and 50 to 70% in test [3] (setting [5]).
As for `Cc1cc(S(=O)(=O)NCCOCCOCCNC(=O)NCCCCNC(=O)NCCOCCOCCNS(=O)(=O)c2ccc(O[C@H]3c4cc(Cl)cc(C)c4C[C@@H]3N3CCC[C@@H](N(C)C)C3)c(C)c2)ccc1O[C@H]1c2cc(Cl)cc(C)c2C[C@@H]1N1CCC[C@@H](N(C)C)C1` [Example 29], the inhibition at 1 µM in test [1] and in test [2] was above 70% throughout. Moreover, in test [3], the “Fecal fluid content (Δ from vehicle)” value is reported as “A (<5)”. The response vs control in vivo at 15 mg/kg in test [3] (setting [4]) is 150 to 200%; in test [3] (setting [5]), 50 to 70%.
Turning to `O=C(NCCCCNC(=O)NCCOCCOCCNS(=O)(=O)c1ccc(O[C@H]2c3cc(Cl)cc(Cl)c3C[C@@H]2N2CCNCC2)c(F)c1)NCCOCCOCCNS(=O)(=O)c1ccc(O[C@H]2c3cc(Cl)cc(Cl)c3C[C@@H]2N2CCNCC2)c(F)c1` [Example 33, 3-[2-(2-[2-[(4-[[(1S,2S)-4,6-Dichloro-2-(piperazin-1-yl)-2,3-dihydro-1H-inden-1-yl]oxy]-3-fluorobenzene)sulfonamido]ethoxy]ethoxy)ethyl]-1-[4-[[(2-(2-[2-[(4-[[(1S,2S)-4,6-dichloro-2-(piperazin-1-yl)-2,3-dihydro-1H-inden-1-y]oxy]-3-fluorobenzene)sulfonamido]ethoxy]ethoxy)ethyl]carbamoyl]amino)butyl]urea; bis(trifluoroacetic acid)], the inhibition at 1 µM in test [1] and in test [2] was above 70% each time. Also, the “Fecal fluid content (Δ from vehicle)” value in test [3] is given as “C (>10)”. In addition, the response vs control in vivo at 15 mg/kg in test [3] (setting [4]) is above 200%; in test [3] (setting [5]), below 50%.
With `Cc1cc(S(=O)(=O)NCCOCCOCCNC(=O)NCCCCNC(=O)NCCOCCOCCNS(=O)(=O)c2ccc(O[C@H]3c4cc(Cl)cc(Cl)c4C[C@@H]3N3CCNCC3)c(C)c2)ccc1O[C@H]1c2cc(Cl)cc(Cl)c2C[C@@H]1N1CCNCC1` [Example 32, 3-[2-(2-[2-[(4-[[(1S,2S)-4,6-Dichloro-2-(piperazin-1-yl)-2,3-dihydro-1H-inden-1-yl]oxy]-3-methylbenzene)sulfonamido]ethoxy]ethoxy)ethyl]-1-[4-([[2-(2-[2-[(4-[[(1S,2S)-4,6-dichloro-2-(piperazin-1-yl)-2,3-dihydro-1H-inden-1-yl]oxy]-3-methylbenzene)sulfonamido]ethoxy]ethoxy)ethyl]carbamoyl]amino)butyl]urea; bis(trifluoroacetic acid)], the inhibition at 1 µM in test [1] and in test [2] was above 70% each time. Also, in test [3], the “Fecal fluid content (Δ from vehicle)” value is given as “A (<5)”. The results for the response vs control in vivo at 15 mg/kg in test [3] (setting [4]) and in test [3] (setting [5]) were 150 to 200% and 50 to 70%, respectively.
`Cc1cc(Cl)cc2c1C[C@H](N1CCNCC1)[C@H]2Oc1ccc(S(=O)(=O)NCCOCCOCCNC(=O)NCCCCNC(=O)NCCOCCOCCNS(=O)(=O)c2ccc(O[C@H]3c4cc(Cl)cc(C)c4C[C@@H]3N3CCNCC3)c(F)c2)cc1F` [Example 36, 3-[2-(2-[2-[(4-[[(1S,2S)-6-Chloro-4-methyl-2-(piperazin-1-yl)-2,3-dihydro-1H-inden-1-yl]oxy]-3-fluorobenzene)sulfonamido]ethoxy]ethoxy)ethyl]-1-[4-([[2-(2-[2-[(4-[[(1S,2S)-6-chloro-4-methyl-2-(piperazin-1-yl)-2,3-dihydro-1H-inden-1-yl]oxy]-3-fluorobenzene)sulfonamido]ethoxy]ethoxy)ethyl]carbamoyl]amino)butyl]urea; bis(trifluoroacetic acid)]: the inhibition at 1 µM in test [1] and in test [2] was above 70% each time. Also, the “Fecal fluid content (Δ from vehicle)” value in test [3] was “B (5-10)”. In addition, the figures for the response vs control in vivo at 15 mg/kg in test [3] (setting [4]) and in test [3] (setting [5]) were 150 to 200% and 50 to 70%, respectively.
Consider `Cc1cc(S(=O)(=O)N2CC[C@@H](COCCOCCNC(=O)NCCCCNC(=O)NCCOCCOC[C@@H]3CCN(S(=O)(=O)c4ccc(O[C@H]5c6cc(Cl)cc(Cl)c6C[C@@H]5N(C)C)c(C)c4)C3)C2)ccc1O[C@H]1c2cc(Cl)cc(Cl)c2C[C@@H]1N(C)C` [Example 45, 3-[2-(2-[[(3R)-1-[(4-[[(1S,2S)-4,6-Dichloro-2-(dimethylamino)-2,3-dihydro-1H-inden-1-yl]oxy]-3-methylbenzene)sulfonyl]pyrrolidin-3-yl]methoxy]ethoxy)ethyl]-1-[4-([[2-(2[[(3R)-1-[(4-[[(1S,2S)-4,6-dichloro-2-(dimethylamino)-2,3-dihydro-1H-inden-1-yl]oxy]-3-methylbenzene)sulfonyl]pyrrolidin-3-yl]methoxy]ethoxy)ethyl]carbamoyl]amino)butyl]urea; bis(trifluoroacetic acid)], for which the inhibition at 1 µM in test [1] was 50 to 70%; in test [2], above 70%. Also, the “Fecal fluid content (Δ from vehicle)” value in test [3] is on record as “A (<5)”. Further, the response vs control in vivo at 15 mg/kg in test [3] (setting [4]) is below 150%; in test [3] (setting [5]), above 70%.
With `Cc1cc(S(=O)(=O)NCCOCCOCCNC(=O)NCCCCNC(=O)NCCOCCOCCNS(=O)(=O)c2ccc(O[C@H]3c4cc(Cl)cc(C)c4C[C@@H]3N3CCNCC3)c(C)c2)ccc1O[C@H]1c2cc(Cl)cc(C)c2C[C@@H]1N1CCNCC1` [Example 35, 3-[2-(2-[2-[(4-[[(1S,2S)-6-Chloro-4-methyl-2-(piperazin-1-yl)-2,3-dihydro-1H-inden-1-yl]oxy]-3-methylbenzene)sulfonamido]ethoxy]ethoxy)ethyl]-1-[4-([[2-(2-[2-[(4-[[(1S,2S)-6-chloro-4-methyl-2-(piperazin-1-yl)-2,3-dihydro-1H-inden-1-yl]oxy]-3-methylbenzene)sulfonamido]ethoxy]ethoxy)ethyl]carbamoyl]amino)butyl]urea; bis(trifluoroacetic acid)], the inhibition at 1 µM in test [1] and in test [2] was above 70% throughout. Also, the “Fecal fluid content (Δ from vehicle)” value in test [3] is “A (<5)”. The figures for the response vs control in vivo at 15 mg/kg in test [3] (setting [4]) and in test [3] (setting [5]) were 150 to 200% and above 70%, respectively.
With `Cc1cc(S(=O)(=O)NCCOCCOCCNC(=O)NCCCCNC(=O)NCCOCCOCCNS(=O)(=O)c2ccc(O[C@H]3c4cc(Cl)cc(C)c4C[C@@H]3N(C)C)c(C)c2)ccc1O[C@H]1c2cc(Cl)cc(C)c2C[C@@H]1N(C)C` [Example 17, 3-[2-(2-[2-[(4-[[(1S,2S)-6-Chloro-2-(dimethylamino)-4-methyl-2,3-dihydro-1H-inden-1-yl]oxy]-3-methylbenzene)sulfonamido]ethoxy]ethoxy)ethyl]-1-[4-([[2-(2-[2-[(4-[[(1S,2S)-6-chloro-2-(dimethylamino)-4-methyl-2,3-dihydro-1H-inden-1-yl]oxy]-3-methylbenzene)sulfonamido]ethoxy]ethoxy)ethyl]carbamoyl]amino)butyl]urea], the inhibition at 1 µM in test [1] and in test [2] was 50 to 70% each time. In test [3], the “Fecal fluid content (Δ from vehicle)” value is given as “B (5-10)”. Besides, the response vs control in vivo at 15 mg/kg in test [3] (setting [4]) lay in the range of 150 to 200%; in test [3] (setting [5]), 50 to 70%.
Turning to `Cc1cc(S(=O)(=O)N2CC[C@@H](COc3ccnc(CNC(=O)NCCCCNC(=O)NCc4cc(OC[C@@H]5CCN(S(=O)(=O)c6ccc(O[C@H]7c8cc(Cl)cc(Cl)c8C[C@@H]7N(C)C)c(C)c6)C5)ccn4)c3)C2)ccc1O[C@H]1c2cc(Cl)cc(Cl)c2C[C@@H]1N(C)C` [Example 49, 3-[(4-[[(3R)-1-[(4-[[(1S,2S)-4,6-Dichloro-2-(dimethylamino)-2,3-dihydro-1H-inden-1-yl]oxy]-3-methylbenzene)sulfonyl]pyrrolidin-3-yl]methoxy]pyridin-2-yl)methyl]-1-[4-([[(4-[[(3R)-1-[(4-[[(1S,2S)-4,6-dichloro-2-(dimethylamino)-2,3-dihydro-1H-inden-1-yl]oxy]-3-methylbenzene)sulfonyl]pyrrolidin-3-yl]methoxy]pyridin-2-yl)methyl]carbamoyl]amino)butyl]urea], the inhibition at 1 µM in test [1] and in test [2] was above 70% throughout. Moreover, the “Fecal fluid content (Δ from vehicle)” value in test [3] is listed as “A (<5)”. For the same compound, the response vs control in vivo at 15 mg/kg is below 150% in test [3] (setting [4]) and above 70% in test [3] (setting [5]).

By inhibition is commonly meant the percentage by which the read-out fell short of the control. High values mean strong suppression, low ones little suppression.
